# PMC7457602 (bioRxiv, 2020)
# Molecular target: SARS-CoV-2 3CLpro (Severe acute respiratory syndrome coronavirus 2, UniProt P0DTD1)
smiles,measurement,value
O=c1c2ccccc2[se]n1-c1ccccc1 [Ebselen],activity in the transfection-based assay (rescue of 3CLpro induced cytotoxicity),did not observe activity
